We go through two compounds from publication PMC12442099 (ACS Infectious Diseases, 2025).

What is called EC50 is the midpoint of the concentration-response curve.

In brackets after ≈: the same amount, converted by molar mass.

In data set [1] the test system is E. coli TOP10F’. The experiment in a line: NPN uptake assay (outer membrane permeability). It counts as cell-based. The note with it: 1 h, 10 μM NPN. As to the method: To investigate the effect of our quinolone hits on membrane permeability, we performed a 1-N- phenylnaphthylamine NPN uptake assay (Figure ), as described previously. NPN is a hydrophobic fluorophore that is unable to cross the OM under normal conditions.
6 Effect of compounds (A) A2 and (B) B1 on membrane integrity analyzed by NPN permeability. Polymyxin B was used at 1 μM and PMBN at 4 μM as membrane permeabilizing control compounds. Data represent the average relative fluorescence values of three independent experiments performed in triplicate. Error bars represent standard deviation of three independent experiments. Data were analyzed using a One-Way ANOVA with Dunnett’s multiple comparisons. **: p = 0.0017; ****: p < 0.0001.
ONC of E. coli TOP10F’ grown in LB were diluted to OD600 = 0.1 and subsequently grown until OD600 0.5 was reached. Bacterial cells were then pelleted at 1,000g for 10 min and resuspended in assay buffer (5 mM HEPES + 20 mM glucose, pH 7.2) to 1.0 OD600 units/ml. The cell suspension was then added to a black, clear bottom 96-well plate (Greiner Bio-One) at a final concentration of 0.5 OD600 units/ml. […] NPN fluorescence (Ex./Em. λ 355, 420) was measured after 1h incubation at room temperature. Relative fluorescence was calculated following the correction of NPN fluorescence in the absence of compound: NPNuptake=[Fobs−Fb]/[Fcontrol−Fb]

The test system of data set [2] is E. coli MC4100. Kind of data set: Growth inhibition after 7 hours (EC80/EC50). The settings on record: Escherichia coli, MC4100, 7 h; for EC50: read-out: EC50 MC4100; for IC80: read-out: EC80 MC4100.

`O=C1COc2ccc(CNC3CCN(CC4Cc5c(F)cc(F)c6ccc(=O)n4c56)CC3)nc2N1` (stereo not drawn) [B1]: the “NPN relative fluorescence (membrane permeability)” value in data set [1] is “did not exhibit an increase in fluorescence”. In data set [2], the EC50 was determined as 0.5 mg/L (≈ 1.04 µM) and the IC80 turned out to be 2 mg/L (≈ 4.15 µM).

Turning to `CC(C)(C)n1cc(C(=O)O)c(=O)c2cc(F)c(N3CC4CC3CN4)nc21` (stereo not drawn) [A2], in data set [1], the “NPN relative fluorescence (membrane permeability)” value was “significant increase in relative fluorescence at 4 and 16 μM”. Moreover, in data set [2], the 50% effective concentration (EC50) is 0.125 mg/L (≈ 0.347 µM) and the IC80 was 0.25 mg/L (≈ 0.694 µM).
